From article PMC11013252, “Exploration of the Antibacterial and Anti-Inflammatory Activity of a Novel Antimicrobial Peptide Brevinin-1BW” (Molecules, 2024)
≈ marks a conversion by molar mass, not a printed value. Positions of bridges follow the written chain, without caps; N, C: chain ends. Residues, ends and D or L forms follow the SMILES beside them.

Key:
[1] = tested on: E. faecalis (ATCC29212); experiment: microbe, parasite or virus in culture; format: cell-based, Enterococcus faecalis; conditions: ATCC29212, 18 h
Method: (§1) The minimum inhibitory concentration (MIC) of the Brevinin-1BW was measured in 96-well microtiter plates according to the Clinical and Laboratory Standards Institute (CLSI). The activated strains were treated with Mueller Hinton Agar (MHA) solid medium. Single colonies were picked and expanded to the logarithmic growth phase, and the solution was diluted to 2 × 10^6 CFU/mL using the McFarland turbidity standard. The MIC was determined with the two-fold dilution method. Briefly, 50 μL of Mueller Hinton (MH) medium was added to a 96-well plate in advance. Then, 50 μL of AMP solution was added to the first well, and 50 μL was pipetted into the next well after mixing using a row gun, while 50 μL was discarded from the last well. Final concentrations of Brevinin-1BW were 100, 50, 25, 12.5, 6.25, and 3.125 μg/mL. A 50 μL volume of the diluted bacterial solution was added, and the final concentration of the bacterial solution was 1 × 10^6 CFU/mL. This was then placed into a 37 °C incubator for 18 h until the next day to observe the degree of turbidity of the 96-well plate and measure the absorbance of the wells at 600 nm with a multifunctional microplate reader (SpectraMax iD5, Molecular Devices, Sunnyvale, CA, USA). The absence of turbidity and the measured concentration of absorbance being less than the opposing group was taken as the MIC. The positive control used ampicillin at the same final concentration as Brevinin-1BW, the negative control used 50 μL of MH medium mixed with 50 μL of 2 × 10^6 CFU/mL bacterial solution, and the blank contained only 100 μL of MH medium. Three replicate wells were set up for each experiment, and each experiment was repeated three times. The MIC and all concentrations above the MIC of bacterial solution coated on MHA solid medium were placed into 37 °C incubator incubation for 18 h. The lowest concentration resulting in no colony growth was taken as the minimum bactericidal concentration (MBC).

[2] = ABTS radical scavenging; conditions: at 200 μg/mL, room temperature, 6 min, absorbance 734 nm
Method: ABTS^+ scavenging capacity: A 7 mM ABTS (Med Chem Express, NJ, USA) solution and 140 mM potassium persulfate (Aladdin, Shanghai, China) solution were prepared. A 5 mL volume of ABTS was taken and mixed with 88 μL of potassium persulfate before being placed in the dark at room temperature for 14 h to form the ABTS radical stock solution. The ABTS radical stock solution was then diluted with 95% ethanol by volume to reach an OD734 nm = 0.7. Then, 10 μL of Brevinin-1BW solution was mixed with 50 μL of ABTS radical stock solution, and the resulting absorbance was measured at 734 nm for 6 min at room temperature, which was recorded as A1. The absorbance of 95% ethanol was measured as A2. The same concentration of vitamin C was used as the positive control. The clearance was calculated according to the following equation: ABTS^+ Clearance Rate%=(A2−A1)/A2×100

[3] = tested on: S. aureus (MDR ATCC29213); experiment: microbe, parasite or virus in culture; format: cell-based, Staphylococcus aureus; conditions: ATCC29213, 18 h
Method: as §1

[4] = tested on: S. aureus (ATCC25923); experiment: microbe, parasite or virus in culture; format: cell-based, Staphylococcus aureus
Method: as §1

[5] = tested on: S. aureus mature biofilm; experiment: Biofilm clearance, crystal violet; format: cell-based, Staphylococcus aureus; conditions: S. aureus 24 h biofilm
Method: Biofilm clearance of Brevinin-1BW was determined using a 96-well plate assay by first inoculating 100 µL of S. aureus bacterial suspension (5 × 10^5 CFU/mL) and incubating for 24 h at 37 °C. They were washed three times with sterile PBS. […] After 24 h of incubation, the cells were washed three times with sterile PBS. Methanol was added and fixed for 0.5 h and dried aseptically. A 1% crystal violet solution was added for 0.5 h and washed three times with sterilized deionized water. Absolute ethanol dissolved the biofilm. Absorbance was measured at 600 nm. Experiments were repeated four times independently.

CC[C@H](C)[C@@H]1NC(=O)[C@H](CCCCN)NC(=O)[C@@H](NC(=O)[C@H](Cc2ccccc2)NC(=O)[C@@H](NC(=O)[C@@H](NC(=O)[C@@H]2CCCN2C(=O)[C@H](CC(C)C)NC(=O)[C@H](Cc2ccccc2)NC(=O)[C@H](CO)NC(=O)[C@H](C)NC(=O)[C@H](C)NC(=O)[C@H](CC(C)C)NC(=O)CNC(=O)[C@H](C)NC(=O)[C@H](CC(C)C)NC(=O)[C@H](CC(C)C)NC(=O)[C@@H]2CCCN2C(=O)[C@H](CC(C)C)NC(=O)[C@@H](N)Cc2ccccc2)[C@@H](C)O)[C@@H](C)CC)CSSC[C@@H](C(=O)O)NC(=O)[C@H](CCCCN)NC(=O)[C@H](CCCNC(=N)N)NC(=O)[C@H](CO)NC1=O [Brevinin-1BW] (H-FLPLLAGLAASFLPTIFCKISRKC-OH; disulfide 18-24)
MBC [1]: 12.5 µg/mL (≈ 4.79 µM) | MIC [1]: 3.125 µg/mL (≈ 1.2 µM) | ABTS radical scavenging [2]: less than 20% | MBC [3]: 25 µg/mL (≈ 9.58 µM) | MIC [3]: 6.25 µg/mL (≈ 2.4 µM) | MBC ([4]; ATCC25923, 18 h): 6.25 µg/mL (≈ 2.4 µM) | MIC ([4]; ATCC25923, 18 h): 6.25 µg/mL (≈ 2.4 µM) | reduction of viability ([4]; S. aureus, at 6.25 μg/mL): 99.9% | clearance rate of the mature biofilm ([5]; 0.5 × MIC): 50.02% | clearance rate of the mature biofilm ([5]; 2 × MIC): 60.99%
